We go through six molecules from patent publication US20070218023A1, “Uses of melatonin in skin” (priority 2006, published 2007).

Data set [1] can be described thus: UVR irradiation of melatonin solution in a cell-free system (HPLC, LC-MS). The format is physicochemical. The note with it: melatonin in PBS, UV-doses of 25, 50 and 100 mJ/cm^2. As for the experimental part: (§1) Parallel control dishes were incubated with PBS without melatonin.
(§2) Internal standards for HPLC were dissolved in absolute ethanol. […] AFMK was produced as described previously (48).
Irradiation experiments were performed with a Biorad UV transluminator 2000 (Bio-RAD Laboratories, Hercules, Calif.), calibrated as described previously (37). Briefly, a scanning double monochromator spectroradiometer (Model OL 754, Optronic Laboratories, Orlando, Fla.) was used to scan emission of wavelengths from 250 to 800 nm at 1 nm increments. The spectroradiometer had been calibrated with an NIST traceable tungsten-halogen spectral irradiance standard (Model 75-10E, Optronic Laboratories, Orlando, Fla.) with a precision current source (Model 65, Optronic Laboratories, Orlando, Fla.). An additional calibration module (Model 752-150, Optronic Laboratories, Orlando, Fla.) measured both photometric gain and wavelength accuracy. Wavelength calibration and gain were established or verified before each experimental use. The UV source emission (shown in FIG. 1) consisted primarily of UVB light (wavelength 280-320 nm; 60%), with minor output in the UVA (320-400 nm) and UVC (120-280 nm) range (˜30% and ˜10%, respectively). […]
Peak areas increased linearly with UV-doses (FIG. 2). […] Product identity was determined by comparison with known standards of melatonin metabolites. […]

Data set [2] concerns HaCaT keratinocytes. Kind of data set: Melatonin and metabolites in supernatants and cell lysates of UV-irradiated HaCaT keratinocytes (HPLC, LC-MS). The format is in vitro ADME, human. As for the experimental part: as §1, §2
Irradiation experiments were performed with a Biorad UV transluminator 2000 (Bio-RAD Laboratories, Hercules, Calif.), calibrated as described previously (37). Briefly, a scanning double monochromator spectroradiometer (Model OL 754, Optronic Laboratories, Orlando, Fla.) was used to scan emission of wavelengths from 250 to 800 nm at 1 nm increments. The spectroradiometer had been calibrated with an NIST traceable tungsten-halogen spectral irradiance standard (Model 75-10E, Optronic Laboratories, Orlando, Fla.) with a precision current source (Model 65, Optronic Laboratories, Orlando, Fla.). An additional calibration module (Model 752-150, Optronic Laboratories, Orlando, Fla.) measured both photometric gain and wavelength accuracy. Wavelength calibration and gain were established or verified before each experimental use. The UV source emission (shown in FIG. 1) consisted primarily of UVB light (wavelength 280-320 nm; 60%), with minor output in the UVA (320-400 nm) and UVC (120-280 nm) range (˜30% and ˜10%, respectively). Melatonin photoproducts generation was performed after irradiation at the UV doses of 25, 50, 75 or 100 mJ/cm^2, as indicated in the figures.
(§3) Aliquots ([…]) of samples from the cell suspension and cell-free experiments were separated on an LC-MS QP8000a (Shimadzu, Japan) equipped with diode array and single quadrupole mass-spectrometric detectors. The separation system consisted of a Restec Allure C18 reverse-phase column (150×4.6 mm; 5 μm particle size; and 60 A pore size) with mobile phase consisting of 25% acetonitrile and 0.1% acetic acid. Elution was carried out isocratically at flow rate of 0.75 ml/min and temperature of 40° C. The eluent was routed to the mass-spectrometric electrospray interface (ESI) set in positive mode and using nitrogen as the nebulizing gas. Mass-spectrometry parameters were as follows: nebulizer gas flow rate, 4.5 l/min; electrospray voltage, 4.5 kV; and curved desolvation line (CDL) heater temperature, 250° C. The selected ion monitoring (SIM) mode was used to detect ions with m/z=249 (monohydroxymelatonin); m/z=265 (dihydroxymelatonin and AFMK); m/z=237 (AMK); and m/z=233 (melatonin). System control and data acquisition were performed with the LC-MS workstation Class-8000 software (Shimadzu, Japan).

Data set [3] has as its system HaCaT keratinocytes. In words: Kinetics of melatonin metabolism in untreated keratinocytes (intracellular levels). Type of data set: in vitro ADME, human. The note with it: not preincubated with melatonin, no UV; for intracellular level in untreated keratinocytes after 24 hrs: cultivation for 24 hrs. How it is done:
as §1, §3

Data set [4] has as its system HaCaT keratinocytes. Kind of data set: Morphology analysis of keratinocytes after UV irradiation. Type of data set: cell-based, human. The following applies: melatonin 10^−3 M, 50 mJ/cm^2, 24 hours after irradiation. How it is done: Cell media from overnight incubation was removed and replaced with fresh media containing melatonin at the concentration of 10^−3 M, the maximum effective concentration identified in previous studies (45, 46). […] Irradiation of the Petri dishes was performed with UVR from below, and after irradiation PBS was replaced by fresh culture media for 24 or 48 hrs. Paraely, cells were incubated with or without melatonin, but not subjected to irradiation to exclude effects of melatonin alone.
Digital pictures from six to ten randomly chosen fields per Petri dish for each experimental condition were acquired at different time points after UV exposure (0, 24 and 48 hrs) with a NIKON Eclipse TE300 microscope (Melville, N.Y.). At 24 and 48 hrs after UV exposure, pictures of detached cells were first taken, then detached cells were removed and another set of pictures was acquired to assess the degree of confluency of cells which were still attached to the bottom of the culture dish. Pictures were recorded and analyzed with MetaVue software. Then, keratinocytes were harvested from Petri dishes by trypsinization, washed three times with ice-cold PBS and frozen in −80° C. until further processing.

Data set [5] has as its system HaCaT keratinocytes. The following applies: human.
Source text: HaCaT keratinocytes were cultivated in Dulbecco's Modified Eagle Medium (DMEM) supplemented with glucose, L-glutamine, pyridoxine hydrochloride (Gibco, Invitrogen Life Technologies Carlsbad, Calif.), 10% fetal bovine serum (Mediatech Inc., Herndon, Va.) and 1% penicillin/streptomycin/amphotericin antibiotic solution (Sigma Chemical Co., St. Louis, Mo.). Cells were trypsinized from culture flasks and seeded in 10 cm petri dishes (Corning Inc., Corning, N.Y.) at a density of 10^6 cells/dish and incubated overnight. The next day, after confluence of 80-90% was reached, cells were washed once with PBS to remove remnants of media, and incubation with melatonin in PBS was performed for 30 min. Parallel control dishes were incubated with PBS without melatonin. After incubation the Petri dishes were irradiated from below with UVR. […]
Cell extracts were briefly sonicated in 50 μl absolute ethanol in a Branson 5200 waterbath at ambient temperature (Branson Ultrasonics Corporation, Danbury, Conn.). […] Column eluate was monitored by Model 2487 UV detector (275 nm) and Model 991 photodiode array detectors and the data stored electronically for subsequent interpretation.
Data set [6] relates to HaCaT keratinocytes. In words: Mitochondrial membrane potential (ΔΨ) using JC-1, confocal microscopy. The note with it: for mitochondrial membrane potential, melatonin alone: melatonin 10−4 M, without UV-exposure. Type of data set: cell-based, human. How it is done: Mitochondrial inner membrane potential (ΔΨ) in immortalized HaCaT keratinocytes was measured by using confocal microscopy with 5,5′,6,6′tetrachloro-1,1′,3,3′-tetraethylbenzimidazol-carbocyanine iodide (JC-1) (Molecular Probes, Carlsbad, Calif.) (66). JC-1 selectively enters mitochondria and aggregates when the membrane potential values exceed 80-100 mV, causing a shift in fluorescence from 530 nm (green) to 590 nm (red). For experiments, human HaCaT keratinocytes were seeded in Lab-Tek II 8-well chambered coverglass (Nalge Nunc, Inc., Naperville, Ill.) and grown until 90-100% of confluence. Culture media were removed and cells washed with PBS and then incubated for 30 or 120 min with melatonin at […]. Stock solution of melatonin was dissolved in DMEM and added to the culture media. After incubation, cells were washed twice with PBS and subjected to irradiation with UVB at the dose of 50 mJ/cm^2 or incubated with serum free medium containing 1 mM H2O2 for 1 h. After irradiation cells were incubated in DMEM containing 5% FBS and supplemented with JC-1 (2.5 μg/ml) for 30 min at 37° C. […] Images were acquired from three to six randomly chosen fields for each experimental condition showing nuclear cross-section. Green and red channels were merged and ratio of red to green channel was shown in blue.
Bands of immunoblots were evaluated by measurement of density with Scion Image analysis software (NIH). Density values from two or three experiments were taken for calculation of mean values and standard deviation. For statistical analysis of mitochondrial membrane potential, images showing nuclear cross-section were acquired from three to six randomly chosen fields -or each experimental condition. Ration of red/green emission was calculated using ImageJ software (NIH, Bethesda, […].) and differences were analysed with Student's t-test and were considered significant when p-value was <0.05.

Data set [7] concerns HaCaT keratinocytes. The note with it: [3H]-labeled melatonin tracer only; cited from earlier work.

“Also recorded” adds a separate entry of the source.

For `COc1ccc(NC=O)c(C(=O)CCNC(C)=O)c1` [AFMK, N^1-acetyl-N^2-formyl-5-methoxykynuramine], the “relative HPLC peak size of photoproduct” value in data set [1] was “largest peak”. Also, in the data set with HaCaT keratinocytes [2] (HaCaT preincubated with 10−3 M melatonin, UVR), the “time of highest level in supernatants post UV exposure” value is 40 min. Besides, in the data set on HaCaT keratinocytes [2] (cells not preincubated with melatonin), the “AFMK level in supernatants, irradiated vs nonirradiated” value was approximately 13 fold. Further, the “AFMK level in supernatants, irradiated vs non-irradiated” value with HaCaT keratinocytes [2] (melatonin preincubation, 50 mJ/cm^2) was approximately 100 fold. The “AFMK level in cell lysates, irradiated vs nonirradiated” value in the data set on HaCaT keratinocytes [2] (melatonin preincubation, UVR) is listed as “approximately 3.5 fold”. The “AFMK level in native keratinocytes (lysates), UV-stimulated increase” value with HaCaT keratinocytes [2] (not preincubated with melatonin) was found to be 1.9 fold. In addition, in the data set on HaCaT keratinocytes [3], the “intracellular level in untreated keratinocytes, initial (basal)” value (“intracellular level … (basal)” for short) stood at 17.4 pmoles/1000 cells and the “intracellular level in untreated keratinocytes after 24 hrs” value (shortened to “intracellular level … after 24 hrs”) is 33.6 pmoles/1000 cells.
Consider `COc1ccc2[nH]c(O)c(CCNC(C)=O)c2c1` [2-hydroxymelatonin], for which, in the data set with HaCaT keratinocytes [3], the “intracellular level … (basal)” value worked out at 7.8 pmoles/1000 cells and the “intracellular level … after 24 hrs” value is listed as 20.4 pmoles/1000 cells.
For `COc1ccc2[nH]cc(CCNC(C)=O)c2c1` [melatonin], the “keratinocyte confluency and empty spaces after UV irradiation” value with HaCaT keratinocytes [4] is “confluency was higher compared to non-treated control and no empty spaces were seen”. Further, in the data set on HaCaT keratinocytes [5], the intracellular melatonin concentration entry is reported as “approximately 10−6 M” and the “uptake of melatonin into the cell, ratio of intra- to extracellular melatonin (% of applied levels)” value is on record as 0.125%. The “photoproducts generated by UV irradiation of melatonin solution” value in data set [1] is “generated four compounds”. Besides, the “UV-induced mitochondrial membrane potential reduction, red/green fluorescence ratio” value in the data set on HaCaT keratinocytes [6] (melatonin 10^−3 to 10^−6 M for 30 or 120 min, UVB 50 mJ/cm^2) is given as “attenuated by melatonin in a dose dependent manner; also recorded: prevented membrane potential reduction”. The “H2O2-induced reduction of mitochondrial membrane potential” value with HaCaT keratinocytes [6] (melatonin 10^−4 M, H2O2 1 mM, 60 minutes) is reported as “significantly counteracted”. Further, the “mitochondrial membrane potential, melatonin alone” value with HaCaT keratinocytes [6] is given as “no change of mitochondrial membrane potential”. For the same molecule, in the data set on HaCaT keratinocytes [6] (listed as Melatonin), the “mitochondrial membrane potential, melatonin alone” value is “did not influence mitochondrial membrane potential”. In addition, the “mitochondrial membrane potential after UVB (JC-1 images)” value in the data set with HaCaT keratinocytes [6] (preincubation with melatonin 10^−4 M, UVB 50 mJ/cm^2) is on record as “preserved mitochondrial membrane potential”. For the same molecule, the “melatonin uptake in HaCaT keratinocytes (Nickel and Wohlrab)” value with HaCaT keratinocytes [7] is 0.097%. The “melatonin level in supernatants after UV exposure, % of nonirradiated melatonin solution” value in the data set with HaCaT keratinocytes [2] (human) was 99.7%. In the data set on HaCaT keratinocytes [3], the “intracellular level … (basal)” value came to 146.0 pmoles/1000 cells and the “intracellular level … after 24 hrs” value is listed as 65.0 pmoles/1000 cells.
In the case of `COc1ccc(N)c(C(=O)CCNC(C)=O)c1` [AMK, N^1-acetyl-5-methoxykynuramine], the “detection of AMK after UVR exposure” value with HaCaT keratinocytes [2] is given as “could not be detected”.
For `COc1cc2c(CCNC(C)=O)c[nH]c2cc1O` [6-hydroxymelatonin], in the data set with HaCaT keratinocytes [3], the “intracellular level … (basal)” value is recorded as 53.4 pmoles/1000 cells and the “intracellular level … after 24 hrs” value was determined as 16.8 pmoles/1000 cells.
Regarding `COc1ccc2[nH]cc(CCNC(C)=O)c2c1O` [4-hydroxymelatonin], the intracellular detection result in the data set on HaCaT keratinocytes [2] (basal conditions and after UVR exposure) was “not detected intracellularly”.
